Measured values from patent US20210321638A1, “ANIMAL FEED AND METHODS TO PROVIDE SUCH FEED” (Nutreco Nederland B.V., priority 2016, published 2021).

How the values were obtained:
[1] = system: Salmonella typhimurium; assay: in vitro adhesion of bacteria to coated 96-well plate, time to onset OD600; assay type: cell-based; settings: Table 4, Example 4; total amount of agents the same in all experiments; control 6.95
Experimental: Example 1 describes an in vitro model study for assessing the effect of ABM mycelium on bacterial adhesion. In this method the adhesion of Salmonella typhimurium to ABM mycelium is assessed.
(§1) Use was made of a 96-well plate on which the ABM mycelium was coated. For this, the ABM mycelium (in this and each case below a fermented rye product was actually used, in which product the amount of ABM mycelium was about 15% w/w) was suspended in PBS to a final concentration of 1% (w/v) and mixed thoroughly. Subsequently the suspension was centrifuged to remove insoluble material. Thereafter, the supernatant was used for coating the wells of the microtiter plate. For the adhesion assessment, a Salmonella typhimurium suspension was added to the microtiter plate. The plate was then incubated for 30 minutes and after this incubation step washed with PBS. Subsequently growth medium was added to the wells and the time to onset OD600 value was determined. The optical density (OD) measurement was used as a tool to compare numbers of adhered bacteria to the coated wells of the 96-well plate with different compounds. The initial cell density of adhered bacteria correlates with the time-dependent detection of the growth by optical density measurement.
In a second in vitro study, the test was repeated, and additionally the effect on Salmonella enteritidis and E. coli was measured. […]

[2] = system: E. coli; assay: as above; assay type: cell-based, Escherichia coli
Excerpt: as §1
In a second in vitro study, the test was repeated, and additionally the effect on Salmonella enteritidis and E. coli was measured. Also, the amount of ABM mycelium was used in the full amount (see above; denoted “100%”), half of this amount (“50%”) and a quarter of this amount (“25%”). […]

OC[C@H]1O[C@@H](O[C@H]2[C@H](O)[C@H](O)C(O)O[C@@H]2CO)[C@@H](O)[C@@H](O)[C@@H]1O (stereo partly drawn) [β-1,4-mannobiose]
time to onset OD600, S. typhimurium [1]: 5.90 h | effect on the adhesion of E. coli / onset OD600, in words ([2]; Example 4, compared to the control and β-1,4-mannobiose alone): does not have an effect | time to onset OD600, E. coli ([2]; Table 4, Example 4, total amount of agents the same in all experiments, control 7.10): 7.30 h
